Measurements as given in US12239643B2, “Therapeutic agent for inflammatory diseases, autoimmune diseases, fibrotic diseases, and cancer diseases” (MEIJI SEIKA PHARMA CO., LTD., priority 2018, dated 2025).
Like-named read-outs stand apart in the source and are kept apart here.

Key:
[1] = test system: oxazolone-induced auricle edema, BALB/c mice; experiment: Mouse delayed type hypersensitivity (DTH) model (topical); type: in vivo; conditions: 20 μL applied to auricle, 24 hours after application
Description: Evaluation was carried out using female BALB/c mice (7 to 8 weeks of age). First, the hair of the abdomen of the mice was treated with a hair clipper, and then 150 μL of a 3% oxazolone acetone/ethanol solution was applied to the abdomen as a hapten. Five days later, 20 μL/ear of a 1% oxazolone.acetone/ethanol solution was applied to the outer surface of the auricle of both ears of the mouse to induce inflammation. Thirty minutes after the start of inflammation induction, 20 μL of the test compound dissolved in an acetone/ethanol solution was applied to the auricle. A 1% oxazolone was not applied to the blank. The control was one in which 1% oxazolone was applied and only an acetone/ethanol solution was applied without using the test compound. The auricle thickness 24 hours after application of the test compound was measured with a dial thickness gauge, and the value obtained by subtracting the blank value was used to calculate the edema suppression rate by the following formula. Edema Suppression Rate (%)={1−(Value at Addition of Each Test Compound−Blank Value)/(Control Value−Blank Value)}×100 The measurement results obtained by measuring the edema suppression rate at the time of topical administration of each test compound by the above method were evaluated in accordance with the following evaluated basis; A: 60% or more, B: 40% or more and less than 60%, and C: less than 40%.

PDE4 = experiment: Evaluation of PDE4 inhibitory activity, scintillation proximity assay; type: biochemical; conditions: for PDE4 inhibitory activity: summary in words of Tables 57 to 69
How it was run: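 IC50 was derived from inhibition curves, referenced to an enzyme-free blank and a DMSO-only control. Compound, PDE4 preparation and tritiated cAMP reacted 120 min at RT in Tris-HCl buffer (pH 7.4) with MgCl2, EGTA and BSA; YSi-SPA beads with ZnSO4 bound product before scintillation counting.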

[2] = Hepatic metabolic stability (rat liver microsome method); type: in vitro ADME; conditions: rat liver microsomes 0.5 mg/mL, test substance 1 μM, NADPH 1 mM, 37° C., 30 minutes
How it was run: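 Scored by % parent left after 30 min (30 min/0 min ×100, LC-MS), banded A ≥75%, B 60–<75%, C 45–<60%, D <45%. Incubation: 1 μM compound, 0.5 mg/mL rat microsomes, pH 7.4 phosphate buffer, 37° C, 5 min preincubation, NADPH 1 mM started, acetonitrile quench.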

TGF-β = TGF-β inhibitory activity using THP1 cells differentiated into macrophages; type: cell-based; conditions: Homo sapiens, read-out: TFG-β Inhibitory Activity (Test Example 6)
Description: The TGF-β inhibitory activity was measured using THP1 cells as follows. First, THP1 cells were seeded on a 24-well culture plate at […], and culture was carried out overnight at 37° C. and 5% CO2 in RPMI-1640 medium (containing 10% fetal bovine serum, penicillin, and streptomycin) supplemented with 100 nM phorbol myristate acetate. After that, the cells were differentiated into macrophages by changing to RPMI-1640 medium without phorbol myristate acetate, followed by further culture at 37° C. under 5% CO2 overnight. Next, the THP1 culture plate was washed once with PBS(−) 1 mL/well, and then the test compound and lipopolysaccharide (final concentration 1 μg/mL) were added, followed by culture at 37° C. under 5% CO2 for about 7 hours. After culturing, the entire amount of the medium was collected, and the amount of TGF-β in the centrifuged supernatant was quantified by the sandwich ELISA method. The non-addition of lipopolysaccharide was used as a blank, and the control was obtained by adding only dimethyl sulfoxide instead of the test compound, and the inhibition rate of the test compound against the control was calculated by the following formula. Inhibition Rate (%)={1−(Value at Addition of Each Test Compound−Blank Value)/(Control Value−Blank Value)}×100
In addition, the TGF-β inhibitory activity (concentration for the inhibition rate of 50%) of the test compound was calculated from the inhibition curves based on the inhibition rate for various concentrations of the test compound.
The measurement results obtained by measuring the TFG-β inhibitory activity (50% inhibitory concentration) of the test compounds by the above method were evaluated in accordance with the following evaluated basis; A: less than 1 μM, and B: 1 μM or more.

[3] = finer grading of compounds rated A in Evaluation 1, read-out: PDE4 Inhibitory Activity (Evaluation 2)
[4] = scintillation proximity assay, read-out: PDE4 Inhibitory Activity (Evaluation 1; concentration for the inhibition rate of 50%)
[5] = THP-1, THP1 cells differentiated into macrophages, lipopolysaccharide 1 μg/mL, about 7 hours

SMILES | Mouse DTH Model (Test Example 11), Topical: edema suppression rate [1] | IC50 (PDE4; [3]) | IC50 (PDE4; [4]) | PDE4 inhibitory activity (PDE4) | Residual ratio (% remaining for 30-minute reaction) [2] | IC50 (TGF-β; [5]) | IC50 (PDE4; scintillation proximity assay, class symbols of Evaluation 1, read-out: PDE4 Inhibitory Activity (concentration for the inhibition rate of 50%, IC50), Evaluation 1) | IC50 (TGF-β; THP-1, 7 h)
CC(O)C(F)(F)Oc1ccc(-c2nccs2)c2oc(N3CC4CC(C3)N4)nc12 (single isomer, unassigned) [Example 252, 1-((2-(3,6-Diazabicyclo[3.1.1]heptan-3-yl)-7-(thiazol-2-yl)benzo[d]oxazol-4-yl)oxy)-1,1-difluoropropan-2-ol] | B (B: 40% or more and less than 60%) | ≤ 1 nM | < 100 nM | particularly excellent | A (A: a % remaining rate of 75% or more) | – | – | –
FC(F)(F)Oc1ccc(-c2nccs2)c2oc(N3CC4CC(C3)N4)nc12 [Example 29, 2-(3,6-Diazabicyclo[3.1.1]heptan-3-yl)-7-(thiazol-2-yl)-4-(trifluoromethoxy)benzo[d]oxazole] | A (A: 60% or more) | 1 to 11 nM | – | particularly excellent | B (B: 60% or more and less than 75%) | < 1000 nM | < 100 nM | –
CC(C)(O)C(F)(F)Oc1ccc(-c2nccs2)c2oc(N3CC4CC(C3)N4)nc12 [Example 248, 1-((2-(3,6-Diazabicyclo[3.1.1]heptan-3-yl)-7-(thiazol-2-yl)benzo[d]oxazol-4-yl)oxy)-1,1-difluoro-2-methylpropan-2-ol] | A (A: 60% or more) | ≤ 1 nM | < 100 nM | particularly excellent | A (A: a % remaining rate of 75% or more) | < 1000 nM | – | –
CCOc1cc([C@@H](CS(C)(=O)=O)N2C(=O)c3cccc(NC(C)=O)c3C2=O)ccc1OC [apremilast, reference compound] | – | 11 to 100 nM | – | – | – | – | – | > 1000 nM
